Laboratory results: patent US20230158071A1, “TUMOR COMBINED IMMUNOTHERAPY” (CRAGE medical Co., Limited, priority 2018, published 2023)

Experiments:
806-mCD28z-CAR-T cells = assay: Flow cytometry (CellTrace) of CAR-T proliferation in co-culture with breast cancer cells; format: cell-based, mouse; conditions: co-incubation 1:1, 16 hours
Method: The experimental groups are as follows: 806-mCD28z-CAR-T group (or denoted as 806-28Z), olaparib pretreatment group, and olaparib combined treatment group;
The olaparib pretreatment group comprises: 806-mCD28z-CAR-T+1 μM olaparib pretreatment group (or denoted as 806-28Z+Olaparib 1 μM pretreatment), 806-mCD28z-CAR-T+5 μM olaparib pretreatment group (or denoted as 806-28Z+Olaparib 5 μM pretreatment);
Olaparib combined treatment group comprises: 806-mCD28z-CAR-T+1 μM olaparib combined treatment group (or denoted as 806-28Z+Olaparib 1 μM), 806-mCD28z-CAR-T+5 μM olaparib combined treatment group (or denoted as 806-28Z+Olaparib 5 μM).
Before the co-incubation experiment, 806-mCD28z-CAR-T cells need to be stained with CellTrace dye. […]
Olaparib pretreatment group: different concentrations of olaparib (1 μM, 5 μM) are respectively added to a medium for culturing E0771-EGFRvIII or 4T1-EGFRvIII tumor cells, after culturing at 37° C. for 24 hours, the cells are treated with trypsin and resuspended in fresh medium. 806-mCD28z-CAR T cells in Example 1 are taken to co-incubate with E0771-EGFRVIII or 4T1-EGFRvIII cells pretreated with different concentrations of olaparib at a ratio of 1:1; 16 hours later, the proliferation of CAR-T cells and the expression levels of the T cell exhaustion-related proteins PD1, LAG3 and TIM3 on the surface of CAR-T cells are detected by flow cytometry. […]

4T1-EGFRvIII cells = assay: CCK8 proliferation assay, olaparib on 4T1-EGFRvIII breast cancer cells; format: cell-based, mouse
Source text: Since the EGFR287-302 epitope is only exposed in EGFRvIII or tumors overexpressing EGFR, this epitope is hidden in normal tissues (Gan H K et al., Targeting of a conformationally exposed, tumor-specific epitope of EGFR as a strategy for cancer therapy. Cancer Res. 2012, 72(12):2924-2930), conventional methods in molecular biology are used to establish E0771, 4T1 mouse breast cancer cell models (E0771-EGFRvIII, 4T1-EGFRvIII) that overexpress mouse EGFR inserted with amino acid epitope at positions 287-302 of human EGFR. Subsequent research is performed to screen EGFRvIII target-positive cells by cell flow cytometry (FIG. 2A). E0771, 4T1 cells are purchased from the American Type Culture Collection (ATCC).
As an effective inhibitor of PARP1, olaparib may inhibit PARP1 to participate in DNA damage repair process. In mouse breast cancer cell lines and mouse T cells and CART cells, different levels of PARP1 expression are detected (FIG. 2B). Therefore, CCK8 proliferation assay is required to detect the effect of olaparib on proliferation of tumor cells and CART cells.
806-m28Z CAR-T cells in Example 1 are taken to spread in a 96-well plate with 1×10^4 cells per well and 100 μl medium. Breast cancer cells E0771-EGFRvIII and 4T1-EGFRvIII are taken to spread in a 96-well plate with 1×10^4 cells per well and 100 μl medium. Different concentrations of olaparib are taken to add to the cells to make 10 concentration gradients (i.e., the treatment concentrations of olaparib are respectively 50 μM, 20 μM, 10 μM, 5 μM, 2.5 μM, 1 μM, 0.1 μM, 0.01 μM, 0.001 μM, 0 μg/ml). After 48 hours of drug treatment for cells of different groups, 10 μl of CCK8 substrate color reagent (Dojindo) is added to each well; after incubating for 1 hour at 37° C., the absorbance at 450 nm is measured by a microplate reader, calculating the cell viability respectively.
The formula for calculating the cell viability is as follows:
Cell viability (%)=[A (adding drug)−A (blank)]/[A (without adding drug)−A (blank)]

SMILES: O=C(c1cc(Cc2n[nH]c(=O)c3ccccc23)ccc1F)N1CCN(C(=O)C2CC2)CC1 [olaparib]
- proliferation of CART cells (806-mCD28z-CAR-T cells; olaparib combined treatment group (1 μM, 5 μM), not statistically significant): slightly inhibited
- proliferation of CART cells (806-mCD28z-CAR-T cells; olaparib pretreatment group (1 μM, 5 μM)): not significantly affected
- inhibition rate of proliferation of 4T1-EGFRvIII cell line (4T1-EGFRvIII cells; 1 μM and higher concentration of olaparib, 48 hours, CCK8): 30-40%
- proliferation of 4T1-EGFRvIII cells (4T1-EGFRvIII cells; 1 μM olaparib): inhibited
- proliferation of 4T1-EGFRvIII cells (4T1-EGFRvIII cells; 504 olaparib): inhibited
